# Reference: patent publication US9068170B2, “Generation of pluripotent stem cells using recombinant proteins” (THE SCRIPPS RESEARCH INSTITUTE, priority 2008, dated 2015)
# Entries after “also recorded” stand apart in the source; their conditions may differ.
# What was measured:
# [1] = test system: mouse fibroblast cells treated with exogenous Oct4/Sox2/Klf4/Myc polypeptides; assay: Oct4-positive colonies from an intermediate iPSC clone after small molecule treatment (Example 3, FIG. 5); format: cell-based; details: combined treatment 0.5 μM PD0325901, 3 μM CHIR99021, 0.5 μM A-83-01, counted 2 weeks after treatment
# Protocol: FIG. 5. […] A comparison of the number of Oct4^+ iPS cell colonies generated from mouse fibroblast cells treated with exogenous Oct4/Sox2/Klf4/Myc polypeptides, and with or without 0.5 μM PD0325901, 3 μM CHIR99021, and 0.5 μM A-83-01. Y-axis represents percentage of Oct4′ colonies within total number of colonies.
# We tested the TGFβ receptor inhibitor (A-83-01), MEK inhibitor (PD0325901) and GSK-3 inhibitor (CHIR99021), on mouse fibroblast cells that were treated with exogenous Oct4, Klf4, Sox2 and c-Myc polypeptides, for their effects on reprogramming kinetics and efficiency.
# Mouse fibroblasts were grown in mESC growth medium [Knockout DMEM (Invitrogen) supplemented with 10% ES-FBS+10% KSR, 0.1 mM 2-ME, 1% Glutamax, 1% Non-essential amino acids, 1% EmbryoMax ESC Qualified Nucleosides (Millipore), and 10^3 units/ml LIF (ESGRO, Chemicon International)] supplemented with 8 μg/ml of Oct4/Sox2/Klf4/Myc (all four transcription factors are tagged with poly-Arg […]; SEQ ID NO:2) for 4-12 hours, followed by culturing the cells in the absence of the Oct4/Sox2/Klf4/Myc polypeptides for one day. This procedure was repeated 4 times. The cells were then cultured in mESC medium for another two weeks. iPSC clones were detected by colony morphology and expression of pluripotency markers. An intermediate iPSC clone, which expresses ALP but not Oct4 (Oct4), was dissociated with Trypsin-EDTA. The clone was then expanded by continuous culturing with regular mESC medium or medium supplemented with 0.5 μM PD0325901, 3 μM CHIR99021, 0.5 μM A-83-01. The number of Oct4-positive colonies were counted 2 weeks after small molecule treatment (FIG. 5).
# cellular reprogramming = assay: Enhancement of cellular reprogramming by nuclear receptor ligands; format: cell-based
# Mouse fibroblasts = assay: Induction of pluripotency in mouse fibroblasts by intermittent incubation with poly-Arg transcription factor proteins (Example 1); format: cell-based; details: added and/or combined during protein treatment of mouse fibroblasts
# Protocol: Mouse fibroblasts were grown in mESC medium supplemented with 8 μg/ml of either Oct4/Sox2/Klf4 or Oct4/Sox2/Klf4/Myc (all proteins comprising poly-Arg as described above) for 6-8 hours, washed, and incubated for 2-3 days in mESC media without the above-listed transcription factors. This (4-12 hours with, 1-3 days without) was repeated a number (1, 2, 3, 4, or more) of times and then the cells were cultures in mESC for two weeks.
# reprogramming efficiency = details: HDAC inhibitor; Huangfu et al. 2008a; cited from earlier work
SMILES,effect on reprogramming efficiency and kinetics / iPSC generation (Oct4-positive colonies) [1],effect on efficiency and speed of development of pluripotent cells (Mouse fibroblasts),other results
"Cc1cccc(-c2nn(C(=S)Nc3ccccc3)cc2-c2ccnc3ccccc23)n1 [A-83-01, 3-(6-Methyl-2-pyridinyl)-N-phenyl-4-(4-quinolinyl)-1H-pyrazole-1-carbothioamide]",increases reprogramming efficiency and accelerates reprogramming kinetics; also recorded: enhanced iPSC generation,–,–
C=C(c1ccc(C(=O)O)cc1)c1cc2c(cc1C)C(C)(C)CCC2(C)C [Bexarotene],–,–,effect on cellular reprogramming (cellular reprogramming; 3 μM): can enhance cellular reprogramming
Cc1c[nH]c(-c2cnc(NCCNc3ccc(C#N)cn3)nc2-c2ccc(Cl)cc2Cl)n1 [CHIR99021],increases reprogramming efficiency and accelerates reprogramming kinetics; also recorded: enhanced iPSC generation,improved efficiency and speed of development of pluripotent cells,–
CC(C)C[C@H](NC(=O)OCC1c2ccccc2-c2ccccc21)C(=O)O [Fmoc-Leu],–,–,effect on cellular reprogramming (cellular reprogramming; 5 μM): can enhance cellular reprogramming
O=C(NOC[C@H](O)CO)c1ccc(F)c(F)c1Nc1ccc(I)cc1F [PD0325901],increases reprogramming efficiency and accelerates reprogramming kinetics,improved efficiency and speed of development of pluripotent cells,effect on reprogramming efficiency and kinetics / iPSC generation (Oct4-positive colonies) ([1]; listed as PD0320501): enhanced iPSC generation
NC(=O)c1ccc(-c2nc(-c3ccc4c(c3)OCO4)c(-c3ccccn3)[nH]2)cc1 [SB431542],–,improved efficiency and speed of development of pluripotent cells,–
CCCC(CCC)C(=O)O [valproic acid],–,–,effect on reprogramming efficiency (reprogramming efficiency): can significantly improve the reprogramming efficiency
